According to US11298363B2, “Triazolobenzazepines as vasopressin V1a receptor antagonists” (RICHTER GEDEON NYRT., priority 2017, dated 2022):

How the values were obtained:
[1] = target: T1, human vasopressin V1a receptor (Homo sapiens, UniProt P37288); assay: Human vasopressin V1a receptor binding assay; settings: 1321N1 cell membranes, [3H]vasopressin; read-out: Ki (nM) on hV1a cell line
Procedure, shortened: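 Ki values come from IC50 via Cheng-Prusoff (KD from prior Scatchard), averaged over at least two independent runs. Human V1a membranes were incubated with radioligand 60 minutes at 27° C., bound ligand collected by filtration; (Arg^8)-vasopressin at 1.2×10^−6 M defined non-specific binding.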

[2] = target: T1, human vasopressin V1a receptor; assay: Functional assay on human vasopressin V1a receptor expressing cell line (intracellular Ca2+ fluorescence); format: cell-based; settings: 1321N1 cells, (Arg8)-vasopressin at EC80; read-out: IC50 (nM) on hV1a cell line
mouse V1a receptor = mouse V1a receptor (Mus musculus, UniProt Q62463); assay: Functional V1a in vivo test: inhibition of oxytocin-induced scratching behaviour; settings: mice, 10 mg/kg p.o. pretreatment
Sequence of mouse V1a receptor (Q62463 whole entry): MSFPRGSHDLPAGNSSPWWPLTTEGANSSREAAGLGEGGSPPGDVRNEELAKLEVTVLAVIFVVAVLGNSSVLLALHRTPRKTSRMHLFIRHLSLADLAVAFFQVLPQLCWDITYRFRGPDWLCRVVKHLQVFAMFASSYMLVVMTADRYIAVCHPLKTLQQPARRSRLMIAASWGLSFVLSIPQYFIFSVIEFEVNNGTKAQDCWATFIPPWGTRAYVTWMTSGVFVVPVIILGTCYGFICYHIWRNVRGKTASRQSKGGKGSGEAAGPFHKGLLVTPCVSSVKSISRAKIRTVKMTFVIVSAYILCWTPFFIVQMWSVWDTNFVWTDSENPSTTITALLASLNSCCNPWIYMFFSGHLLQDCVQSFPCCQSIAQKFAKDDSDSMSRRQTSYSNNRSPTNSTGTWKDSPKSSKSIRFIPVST
Experimental: Functional V1a In Vivo Test
Male mice (NMRI, ToxiCoop) weighing 18-40 g were used. Animals were kept at least 5 days after delivery, during housing and measurements they were fed and drink ad libitum. The experiments were permitted by the Local Animal Protection Committee and carried out in accordance with the European Animal Protection Directives (EU Directive 2010/63/EU).
Animal behaviour was measured by an automated behavioral analysis system (LABORAS™). The sensors located below platforms detect the mechanical vibration generated by the movement of animal, and transform into an electrical signal (Quinn et al., J Neurosci Methods 2003, 130:83-92). After analyzing signals, the system analyzes the time spent with the following behavioral parameters: locomotion, immobility, climbing, grooming. The grooming algorithm by definition is able to measure the scratching behavioral response. During the experiment, mice were pretreated with the test substance or vehicle, and after the pretreatment period scratching-inducing compound (s.c. 0.3 mg/kg oxytocin) was administered, and then the animals were individually placed into measuring cages. […] To reduce the exploratory activity, the animals were measured after a 1-hour habituation to the cage. The behavioural parameters were compared to the parallel measured parameters of the control animals.
The behavioural inhibitory effect of the substances was calculated with average values of parallel measured vehicle treated groups and presented as the percentage of inhibition: 0% was expressed as average value of scratching behaviour of vehicle pretreated animals (and phys. saline s.c. pretreated with vehicle), while 100% was expressed as average value of scratching of vehicle pretreated animals that received oxytocin subcutaneously. For statistical analysis one-way analysis of variance (ANOVA) with Tukey post hoc test were used.

T1 sequence (P37288 whole entry): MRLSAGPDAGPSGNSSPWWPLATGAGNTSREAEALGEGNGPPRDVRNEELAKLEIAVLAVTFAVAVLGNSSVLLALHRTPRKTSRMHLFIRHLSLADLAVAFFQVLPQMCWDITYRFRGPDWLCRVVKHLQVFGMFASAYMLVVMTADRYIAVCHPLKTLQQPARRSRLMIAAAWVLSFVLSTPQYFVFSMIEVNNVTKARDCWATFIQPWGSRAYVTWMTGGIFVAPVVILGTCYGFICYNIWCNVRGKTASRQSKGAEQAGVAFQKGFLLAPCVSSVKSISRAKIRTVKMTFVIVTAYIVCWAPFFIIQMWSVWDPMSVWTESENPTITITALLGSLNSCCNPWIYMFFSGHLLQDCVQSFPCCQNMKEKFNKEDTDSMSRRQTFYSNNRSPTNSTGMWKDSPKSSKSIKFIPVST

| SMILES | Ki [1] [nM] | IC50 [2] [nM] | inhibition (%) of oxytocin-induced scratching behaviour response (mouse V1a receptor) [%] |
| --- | --- | --- | --- |
| COC1Cc2cc(Cl)ccc2-n2c(nnc2[C@H]2CC[C@H](Oc3ccccn3)CC2)C1 (mixture of isomers) [Example 58, 8-chloro-5-methoxy-1-[trans-4-(pyridin-2-yloxy)cyclohexyl]-5,6-dihydro-4H-[1,2,4]triazolo[4,3-a][1]benzazepine] | 0.3 | 1.4 | 96 |
| COC1Cc2cc(Cl)ccc2-n2c(nnc2[C@H]2CC[C@H](C(F)(F)F)CC2)C1 (mixture of isomers) [Example 74, 8-chloro-5-methoxy-1-[trans-4-(trifluoromethyl)cyclohexyl]-5,6-dihydro-4H-[1,2,4]triazolo[4,3-a][1]benzazepine] | 4 | 2.6 | 30 |
| CO[C@H]1Cc2cc(Cl)ccc2-n2c(nnc2[C@H]2CC[C@H](Oc3ccccn3)CC2)C1 (single isomer, unassigned) [Example 103] | 0.2 | 0.7 | 71 |
| CO[C@@H]1Cc2cc(Cl)ccc2-n2c(nnc2[C@H]2CC[C@H](Oc3ccccn3)CC2)C1 (single isomer, unassigned) [Example 104] | 0.2 | 0.6 | 67 |
| NCC(=O)N[C@@H]1Cc2cc(Cl)ccc2-n2c(nnc2[C@H]2CC[C@H](Oc3ccccn3)CC2)C1 [Example 12, N-{(5R)-8-chloro-1-[trans-4-(pyridin-2-yloxy)cyclohexyl]-5,6-dihydro-4H-[1,2,4]triazolo[4,3-a][1]benzazepin-5-yl}glycinamide] | 0.8 | 9 | 34 |
| CCO[C@]1(C)CC[C@@H](c2nnc3n2-c2ccc(Cl)cc2CC2(C3)OCCO2)CC1 [Example 237, 8′-chloro-1′-(trans-4-ethoxy-4-methylcyclohexyl)-4′H,6′H-spiro[1,3-dioxolane-2,5-[1,2,4]triazolo[4,3-a][1]benzazepine]] | 0.2 | 1.5 | – |
| CCC[C@]1(OCC)CC[C@H](c2nnc3n2-c2ccc(Cl)cc2CC2(C3)OCCO2)CC1 [Example 238, 8′-chloro-1′-(trans-4-ethoxy-4-propylcyclohexyl)-4′H,6′-spiro[1,3-dioxolane-2,5′-[1,2,4]triazolo[4,3-a][1]benzazepine]] | 0.7 | 8.2 | – |
| Clc1ccc2c(c1)CC1(Cc3nnc(C4CCN(Cc5ccccn5)C4)n3-2)OCCO1 (stereo not shown) [Example 239, 8′-chloro-1′-[1-(pyridin-2-ylmethyl)pyrrolidin-3-yl]-4′H,6′H-spiro[1,3-dioxolane-2,5′-[1,2,4]triazolo[4,3-a][1]benzazepine]] | 1.2 | 5.6 | – |
| CC[C@]1(OC)CC[C@@H](c2nnc3n2-c2ccc(Cl)cc2CC2(C3)OCCO2)CC1 [Example 240, 8′-chloro-1′-(cis-4-ethyl-4-methoxycyclohexyl)-4′H,6′H-spiro[1,3-dioxolane-2,5′-[1,2,4]triazolo[4,3-a][1]benzazepine]] | 0.5 | 3.1 | – |
| CC[C@]1(OC)CC[C@H](c2nnc3n2-c2ccc(Cl)cc2CC2(C3)OCCO2)CC1 [Example 241, 8′-chloro-1′-(trans-4-ethyl-4-methoxycyclohexyl)-4′H,6′H-spiro[1,3-dioxolane-2,5′-[1,2,4]triazolo[4,3-a][1]benzazepine]] | 0.4 | 2.6 | – |
| CCC[C@]1(OC)CC[C@H](c2nnc3n2-c2ccc(Cl)cc2CC2(C3)OCCO2)CC1 [Example 242, 8′-chloro-1′-(trans-4-methoxy-4-propylcyclohexyl)-4′H,6′H-spiro[1,3-dioxolane-2,5′-[1,2,4]triazolo 4,3a][1]benzoepin] | 0.5 | 1.8 | – |
| CCC[C@]1(OC)CC[C@@H](c2nnc3n2-c2ccc(Cl)cc2CC2(C3)OCCO2)CC1 [Example 243, 8′-chloro-1′-(cis-4-methoxy-4-propylcyclohexyl)-4′H,6′H-spiro[1,3-dioxolane-2,5-[1,2,4]triazolo[4,3-a][1]benzazepine]] | 0.4 | 2.8 | – |
| CCO[C@]1(CC)CC[C@@H](c2nnc3n2-c2ccc(Cl)cc2CC(NC(C)C)C3)CC1 (stereo partly drawn) [Example 244, 8-chloro-1-(trans-4-ethoxy-4-ethylcyclohexyl)-N-(propan-2-yl)-5,6-dihydro-4H-[1,2,4]triazolo[4,3-a][1]benzazepin-5-amine] | 25 | 263 | – |
| CCO[C@]1(CC)CC[C@@H](c2nnc3n2-c2ccc(Cl)cc2CC(N(C)C)C3)CC1 (stereo partly drawn) [Example 245, 8-chloro-1-(trans-4-ethoxy-4-ethylcyclohexyl)-N,N-dimethyl-5,6-dihydro-4H-[1,2,4]triazolo[4,3-a][1]benzazepin-5-amine] | 7 | 130 | – |
| Clc1ccc2c(c1)CC1(Cc3nnc([C@@H]4CCN(Cc5ccccn5)C4)n3-2)OCCO1 [Example 246, 8′-chloro-1′-[(3R)-1-(pyridin-2-ylmethyl)pyrrolidin-3-yl]-4′H,6′H-spiro[1,3-dioxolane-2,5′-[1,2,4]triazolo[4,3-a][1]benzazepine]] | 0.5 | 3.4 | – |
| COC1Cc2cc(Cl)ccc2-n2c(nnc2[C@@H]2CCN(Cc3cccnc3)C2)C1 (stereo partly shown) [Example 247] | 5 | 30 | – |
| COC1Cc2cc(Cl)ccc2-n2c(nnc2[C@@H]2CCN(Cc3ccccn3)C2)C1 (stereo partly drawn) [Example 248, 8-chloro-5-methoxy-1-[(3R)-1-(pyridin-2-ylmethyl)pyrrolidin-3-yl]-5,6-dihydro-4H-[1,2,4]triazolo[4,3-a][1]benzazepine] | 2.3 | 22 | – |
| Clc1ccc2c(c1)CC1(Cc3nnc([C@H]4CCN(Cc5cccnc5)C4)n3-2)OCCO1 [Example 249, 8′-chloro-1-[(3S)-1-(pyridin-3-ylmethyl)pyrrolidin-3-yl]-4′H,6′H-spiro[1,3-dioxolane-2,5′-[1,2,4]triazolo[4,3-a][1]benzazepine]] | 0.8 | 7 | – |
| Clc1ccc2c(c1)CC1(Cc3nnc([C@@H]4CCN(Cc5cccnc5)C4)n3-2)OCCO1 [Example 250, 8′-chloro-1′-[(3R)-1-(pyridin-3-ylmethyl)pyrrolidin-3-yl]-4′H, 6′H-spiro[1,3-dioxolane-2,5′-[1,2,4]triazolo[4,3-a][1]benzazepine]] | 2.9 | 27 | – |
| COC1Cc2cc(Cl)ccc2-n2c(nnc2[C@H]2CCN(Cc3cccnc3)C2)C1 (stereo partly drawn) [Example 251, 8-chloro-5-methoxy-1-[(3S)-1-(pyridin-3-ylmethyl)pyrrolidin-3-yl]-5,6-dihydro-4H-[1,2,4]triazolo[4,3-a][1]benzazepine] | 18.5 | 152 | – |
| Clc1ccc2c(c1)CC1(Cc3nnc([C@H]4CCN(Cc5ccccn5)C4)n3-2)OCCO1 [Example 252, 8′-chloro-1′-[(3S)-1-(pyridin-2-ylmethyl)pyrrolidin-3-yl]-4′H,6′H-spiro[1,3-dioxolane-2,5′-[1,2,4]triazolo[4,3-a][1]benzazepine]] | 0.7 | 8.2 | – |
| COC1Cc2cc(Cl)ccc2-n2c(nnc2[C@H]2CCN(Cc3ccccn3)C2)C1 (stereo partly drawn) [Example 253, 8-chloro-5-methoxy-1-[(3S)-1-(pyridin-2-ylmethyl)pyrrolidin-3-yl]-5,6-dihydro-4H-[1,2,4]triazolo[4,3-a][1]benzazepine] | 5 | 66 | – |
